The values that follow come from paper PMC8138761 (The Journal of Biological Chemistry, 2021).

Holding throughout (assay type): biochemical
Common to all, as to conditions: read-out: % inhibition at 10 μM

The target in test [1] is cyclin-dependent kinase 5 (CDK5) (Homo sapiens, UniProt Q00535). The test is described as follows: in vitro FRET kinase profiling at […], duplicate.
The target in test [2] is T1, serine/threonine kinase D2 (Homo sapiens, UniProt Q9BZL6).
T1 sequence (Q9BZL6 1-878): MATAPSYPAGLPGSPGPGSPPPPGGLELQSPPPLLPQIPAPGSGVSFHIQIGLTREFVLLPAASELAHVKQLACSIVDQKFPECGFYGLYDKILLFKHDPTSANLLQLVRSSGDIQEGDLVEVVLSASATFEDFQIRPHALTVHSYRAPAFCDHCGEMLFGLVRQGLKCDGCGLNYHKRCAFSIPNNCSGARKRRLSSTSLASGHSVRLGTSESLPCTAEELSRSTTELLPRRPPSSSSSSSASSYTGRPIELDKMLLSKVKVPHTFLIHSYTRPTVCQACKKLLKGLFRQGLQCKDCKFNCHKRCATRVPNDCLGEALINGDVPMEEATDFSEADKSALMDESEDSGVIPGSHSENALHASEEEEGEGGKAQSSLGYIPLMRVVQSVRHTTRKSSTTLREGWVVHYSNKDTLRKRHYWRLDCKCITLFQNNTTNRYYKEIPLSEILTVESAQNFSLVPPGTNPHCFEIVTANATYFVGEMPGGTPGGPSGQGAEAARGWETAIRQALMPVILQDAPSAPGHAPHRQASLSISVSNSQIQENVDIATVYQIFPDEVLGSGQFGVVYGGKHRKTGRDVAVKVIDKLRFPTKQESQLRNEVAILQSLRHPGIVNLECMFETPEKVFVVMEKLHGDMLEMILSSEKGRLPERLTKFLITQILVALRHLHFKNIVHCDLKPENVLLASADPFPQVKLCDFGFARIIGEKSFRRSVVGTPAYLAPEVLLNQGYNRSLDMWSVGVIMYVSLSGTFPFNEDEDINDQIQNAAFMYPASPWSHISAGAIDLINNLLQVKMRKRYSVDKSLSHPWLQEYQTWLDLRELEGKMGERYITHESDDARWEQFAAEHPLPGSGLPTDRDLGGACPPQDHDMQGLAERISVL
The test is described as follows: in vitro FRET kinase profiling at […], duplicate.

In test [3] the target is cyclin-dependent kinase (CDK) 1 (Homo sapiens, UniProt P06493). In words: in vitro FRET kinase profiling at […], duplicate.
Sequence of cyclin-dependent kinase (CDK) 1 (P06493 whole entry): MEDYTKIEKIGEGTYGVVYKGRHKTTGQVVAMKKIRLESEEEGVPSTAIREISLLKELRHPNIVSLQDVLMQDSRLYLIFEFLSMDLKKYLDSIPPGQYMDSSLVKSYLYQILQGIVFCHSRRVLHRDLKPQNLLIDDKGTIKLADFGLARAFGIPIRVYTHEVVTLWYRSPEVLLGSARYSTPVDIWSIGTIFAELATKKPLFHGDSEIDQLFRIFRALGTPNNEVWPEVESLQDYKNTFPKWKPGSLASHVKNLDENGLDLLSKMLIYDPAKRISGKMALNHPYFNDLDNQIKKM
Sequence of cyclin-dependent kinase (CDK) 1 (P14635 whole entry, further chain): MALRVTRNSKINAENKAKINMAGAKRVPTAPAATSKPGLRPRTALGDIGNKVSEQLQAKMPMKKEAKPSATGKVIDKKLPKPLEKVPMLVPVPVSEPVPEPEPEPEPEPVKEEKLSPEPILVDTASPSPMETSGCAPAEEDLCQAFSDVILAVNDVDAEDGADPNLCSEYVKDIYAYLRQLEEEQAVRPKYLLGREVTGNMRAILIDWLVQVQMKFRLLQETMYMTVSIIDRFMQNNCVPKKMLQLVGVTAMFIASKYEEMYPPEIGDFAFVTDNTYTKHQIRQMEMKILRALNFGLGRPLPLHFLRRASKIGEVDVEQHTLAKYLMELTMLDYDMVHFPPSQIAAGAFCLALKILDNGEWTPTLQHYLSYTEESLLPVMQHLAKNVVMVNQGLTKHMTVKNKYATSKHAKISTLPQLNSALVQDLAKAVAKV
The target of test [4] is glycogen synthase kinase 3-beta (GSK3-β) (Homo sapiens, UniProt P49841). In words: in vitro FRET kinase profiling.
Sequence of glycogen synthase kinase 3-beta (GSK3-β) (P49841 whole entry): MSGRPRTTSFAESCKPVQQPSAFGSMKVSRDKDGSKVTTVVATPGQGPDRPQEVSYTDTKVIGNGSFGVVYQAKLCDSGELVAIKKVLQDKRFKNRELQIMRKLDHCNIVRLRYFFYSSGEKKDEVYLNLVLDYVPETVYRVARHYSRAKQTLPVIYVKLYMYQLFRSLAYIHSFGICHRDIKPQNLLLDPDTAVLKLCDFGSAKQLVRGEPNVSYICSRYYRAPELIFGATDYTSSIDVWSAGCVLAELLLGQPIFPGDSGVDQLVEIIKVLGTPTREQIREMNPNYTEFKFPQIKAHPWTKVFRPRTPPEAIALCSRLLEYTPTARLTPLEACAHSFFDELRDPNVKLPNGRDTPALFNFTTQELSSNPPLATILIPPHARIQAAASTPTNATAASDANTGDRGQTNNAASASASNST
The target of test [5] is T2, checkpoint kinase-1 (CHK1) (Homo sapiens, UniProt O14757).
T2 sequence (O14757 1-476): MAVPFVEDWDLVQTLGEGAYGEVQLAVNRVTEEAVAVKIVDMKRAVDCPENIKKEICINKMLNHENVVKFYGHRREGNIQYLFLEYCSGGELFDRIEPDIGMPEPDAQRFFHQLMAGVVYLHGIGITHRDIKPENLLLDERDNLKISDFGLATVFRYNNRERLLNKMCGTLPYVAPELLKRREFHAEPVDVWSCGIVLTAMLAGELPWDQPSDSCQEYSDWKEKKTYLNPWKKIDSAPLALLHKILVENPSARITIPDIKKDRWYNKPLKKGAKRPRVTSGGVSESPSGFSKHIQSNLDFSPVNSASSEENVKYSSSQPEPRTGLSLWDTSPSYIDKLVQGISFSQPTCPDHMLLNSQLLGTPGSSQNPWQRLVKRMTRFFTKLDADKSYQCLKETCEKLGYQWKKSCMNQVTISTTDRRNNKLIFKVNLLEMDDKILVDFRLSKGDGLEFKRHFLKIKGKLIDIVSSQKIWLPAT
In words: in vitro FRET kinase profiling at […], duplicate.

For test [6], the target named is T3, serine/threonine protein kinase-4 (MST1) (Homo sapiens, UniProt Q13043).
T3 sequence (Q13043 1-487): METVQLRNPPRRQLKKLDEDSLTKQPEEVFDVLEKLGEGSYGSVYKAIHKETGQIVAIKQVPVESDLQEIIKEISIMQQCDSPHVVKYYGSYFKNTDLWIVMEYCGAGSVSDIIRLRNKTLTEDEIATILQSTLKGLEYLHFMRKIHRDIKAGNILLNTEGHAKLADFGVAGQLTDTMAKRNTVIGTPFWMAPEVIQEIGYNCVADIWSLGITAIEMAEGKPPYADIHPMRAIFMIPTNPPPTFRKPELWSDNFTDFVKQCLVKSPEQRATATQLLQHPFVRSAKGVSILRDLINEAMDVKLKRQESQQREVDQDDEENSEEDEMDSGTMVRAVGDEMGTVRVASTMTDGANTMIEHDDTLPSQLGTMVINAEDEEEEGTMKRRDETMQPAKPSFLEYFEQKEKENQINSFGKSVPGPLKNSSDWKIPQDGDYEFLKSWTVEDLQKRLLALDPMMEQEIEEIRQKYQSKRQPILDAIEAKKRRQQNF
In words: in vitro FRET kinase profiling at […], duplicate.

Test [7] deals with T4, serine/threonine protein kinase-3 (MST2) (Homo sapiens, UniProt Q13188).
T4 sequence (Q13188 1-491): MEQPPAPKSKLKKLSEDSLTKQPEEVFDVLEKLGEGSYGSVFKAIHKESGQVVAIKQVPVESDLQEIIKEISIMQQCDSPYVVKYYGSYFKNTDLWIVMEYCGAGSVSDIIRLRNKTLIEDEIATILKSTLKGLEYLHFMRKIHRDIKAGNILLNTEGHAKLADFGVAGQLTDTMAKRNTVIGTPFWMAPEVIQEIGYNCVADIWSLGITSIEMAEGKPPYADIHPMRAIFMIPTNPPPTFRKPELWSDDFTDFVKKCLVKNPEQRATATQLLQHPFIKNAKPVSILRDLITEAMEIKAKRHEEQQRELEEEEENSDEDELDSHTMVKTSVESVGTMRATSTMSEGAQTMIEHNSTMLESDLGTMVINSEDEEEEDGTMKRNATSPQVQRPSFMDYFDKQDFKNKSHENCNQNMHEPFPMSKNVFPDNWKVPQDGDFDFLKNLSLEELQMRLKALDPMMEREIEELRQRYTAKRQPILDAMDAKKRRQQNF
In words: in vitro FRET kinase profiling at […], duplicate.

In test [8] the target is serine/threonine protein kinase-24 (MST3) (Homo sapiens, UniProt Q9Y6E0). The test is described as follows: in vitro FRET kinase profiling at […], duplicate.
Sequence of serine/threonine protein kinase-24 (MST3) (Q9Y6E0 whole entry): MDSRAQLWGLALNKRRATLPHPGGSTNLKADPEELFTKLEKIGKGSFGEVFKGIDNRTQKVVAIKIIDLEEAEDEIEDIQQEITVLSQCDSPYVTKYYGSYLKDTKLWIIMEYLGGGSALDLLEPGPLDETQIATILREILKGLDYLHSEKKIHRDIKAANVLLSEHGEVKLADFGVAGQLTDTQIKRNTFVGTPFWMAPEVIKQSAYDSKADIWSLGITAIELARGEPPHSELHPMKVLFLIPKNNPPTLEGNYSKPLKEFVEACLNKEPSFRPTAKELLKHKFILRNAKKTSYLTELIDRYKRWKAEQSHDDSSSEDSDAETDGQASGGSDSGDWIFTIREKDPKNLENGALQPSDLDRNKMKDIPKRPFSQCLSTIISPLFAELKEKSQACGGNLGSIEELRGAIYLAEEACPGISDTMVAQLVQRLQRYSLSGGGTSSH
The target of test [9] is leucine-rich repeat kinase-2 (LRRK2) (Homo sapiens, UniProt Q5S007). In words: in vitro FRET kinase profiling at […], duplicate.
Sequence of leucine-rich repeat kinase-2 (LRRK2) (Q5S007 whole entry): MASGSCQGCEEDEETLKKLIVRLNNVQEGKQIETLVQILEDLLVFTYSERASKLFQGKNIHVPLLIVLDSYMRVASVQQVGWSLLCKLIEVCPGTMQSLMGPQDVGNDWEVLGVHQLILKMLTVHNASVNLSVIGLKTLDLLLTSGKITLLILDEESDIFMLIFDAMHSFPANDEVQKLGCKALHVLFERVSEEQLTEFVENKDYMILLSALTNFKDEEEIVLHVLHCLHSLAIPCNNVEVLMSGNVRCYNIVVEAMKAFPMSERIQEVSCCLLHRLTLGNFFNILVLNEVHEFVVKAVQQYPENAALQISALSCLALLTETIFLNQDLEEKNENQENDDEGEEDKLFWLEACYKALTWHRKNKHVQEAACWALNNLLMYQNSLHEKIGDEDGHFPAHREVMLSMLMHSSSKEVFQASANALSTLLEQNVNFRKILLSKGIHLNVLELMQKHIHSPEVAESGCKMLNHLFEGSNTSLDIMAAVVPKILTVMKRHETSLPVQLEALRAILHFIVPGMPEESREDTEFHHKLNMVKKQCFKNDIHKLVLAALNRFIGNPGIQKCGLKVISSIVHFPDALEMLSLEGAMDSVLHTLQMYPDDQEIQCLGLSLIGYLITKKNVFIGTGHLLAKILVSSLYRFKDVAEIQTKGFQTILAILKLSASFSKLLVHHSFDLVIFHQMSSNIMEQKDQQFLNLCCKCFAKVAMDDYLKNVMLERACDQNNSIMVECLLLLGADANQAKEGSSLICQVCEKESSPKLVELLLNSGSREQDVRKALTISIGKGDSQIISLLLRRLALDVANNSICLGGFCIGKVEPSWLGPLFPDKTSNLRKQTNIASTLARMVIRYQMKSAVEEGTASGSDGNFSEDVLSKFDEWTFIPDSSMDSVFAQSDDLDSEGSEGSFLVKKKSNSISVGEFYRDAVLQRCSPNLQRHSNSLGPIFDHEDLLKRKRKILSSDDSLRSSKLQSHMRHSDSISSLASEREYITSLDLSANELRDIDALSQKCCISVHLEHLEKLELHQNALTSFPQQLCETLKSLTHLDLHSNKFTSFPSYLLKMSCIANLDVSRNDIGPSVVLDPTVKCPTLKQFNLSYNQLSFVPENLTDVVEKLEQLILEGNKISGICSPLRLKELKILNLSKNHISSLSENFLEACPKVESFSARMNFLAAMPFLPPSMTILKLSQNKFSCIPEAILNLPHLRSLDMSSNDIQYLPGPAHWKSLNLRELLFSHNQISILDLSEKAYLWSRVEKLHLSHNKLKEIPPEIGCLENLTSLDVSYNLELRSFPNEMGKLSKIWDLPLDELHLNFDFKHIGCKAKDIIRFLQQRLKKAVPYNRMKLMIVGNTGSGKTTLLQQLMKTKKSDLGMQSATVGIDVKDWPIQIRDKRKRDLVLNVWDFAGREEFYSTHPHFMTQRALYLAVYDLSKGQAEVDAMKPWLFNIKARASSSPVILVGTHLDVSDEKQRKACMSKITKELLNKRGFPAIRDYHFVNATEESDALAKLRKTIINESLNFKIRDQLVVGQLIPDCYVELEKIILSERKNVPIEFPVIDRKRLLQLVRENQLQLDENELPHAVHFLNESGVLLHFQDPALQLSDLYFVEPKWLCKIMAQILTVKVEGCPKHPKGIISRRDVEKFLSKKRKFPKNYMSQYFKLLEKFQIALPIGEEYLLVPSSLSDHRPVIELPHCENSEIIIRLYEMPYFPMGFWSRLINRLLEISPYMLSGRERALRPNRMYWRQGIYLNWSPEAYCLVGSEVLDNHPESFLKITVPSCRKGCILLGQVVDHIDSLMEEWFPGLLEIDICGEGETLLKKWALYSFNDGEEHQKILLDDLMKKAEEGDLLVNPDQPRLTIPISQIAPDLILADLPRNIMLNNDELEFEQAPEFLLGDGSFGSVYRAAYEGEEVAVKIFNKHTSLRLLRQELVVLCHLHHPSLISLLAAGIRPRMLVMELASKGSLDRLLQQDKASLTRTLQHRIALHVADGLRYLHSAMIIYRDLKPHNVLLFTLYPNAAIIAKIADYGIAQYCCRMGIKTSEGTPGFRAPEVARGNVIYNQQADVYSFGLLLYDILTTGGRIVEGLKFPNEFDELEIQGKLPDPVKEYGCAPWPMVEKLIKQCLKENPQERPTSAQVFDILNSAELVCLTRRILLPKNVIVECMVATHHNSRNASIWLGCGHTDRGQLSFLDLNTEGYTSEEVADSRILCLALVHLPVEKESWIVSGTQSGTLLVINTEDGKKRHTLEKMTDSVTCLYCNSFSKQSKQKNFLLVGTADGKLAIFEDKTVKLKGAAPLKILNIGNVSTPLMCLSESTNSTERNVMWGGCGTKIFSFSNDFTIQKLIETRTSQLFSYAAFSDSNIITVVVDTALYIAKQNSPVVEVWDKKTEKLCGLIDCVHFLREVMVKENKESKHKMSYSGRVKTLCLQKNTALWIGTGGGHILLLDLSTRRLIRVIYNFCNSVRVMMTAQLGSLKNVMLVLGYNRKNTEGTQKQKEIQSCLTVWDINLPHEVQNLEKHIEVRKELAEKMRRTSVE
The target of test [10] is checkpoint kinase-2 (CHK2) (Homo sapiens, UniProt O96017). In words: in vitro FRET kinase profiling at […], duplicate.

Sequence of cyclin-dependent kinase 5 (CDK5) (Q00535 whole entry): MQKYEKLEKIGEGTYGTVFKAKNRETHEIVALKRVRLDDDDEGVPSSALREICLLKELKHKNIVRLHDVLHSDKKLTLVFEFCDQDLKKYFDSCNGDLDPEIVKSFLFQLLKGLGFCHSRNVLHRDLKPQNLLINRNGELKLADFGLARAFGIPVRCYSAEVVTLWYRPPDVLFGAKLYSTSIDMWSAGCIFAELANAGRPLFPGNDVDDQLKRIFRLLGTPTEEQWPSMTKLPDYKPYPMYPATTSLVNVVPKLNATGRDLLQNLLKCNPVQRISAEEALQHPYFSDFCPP
Sequence of cyclin-dependent kinase 5 (CDK5) (Q15078 2-307 partner): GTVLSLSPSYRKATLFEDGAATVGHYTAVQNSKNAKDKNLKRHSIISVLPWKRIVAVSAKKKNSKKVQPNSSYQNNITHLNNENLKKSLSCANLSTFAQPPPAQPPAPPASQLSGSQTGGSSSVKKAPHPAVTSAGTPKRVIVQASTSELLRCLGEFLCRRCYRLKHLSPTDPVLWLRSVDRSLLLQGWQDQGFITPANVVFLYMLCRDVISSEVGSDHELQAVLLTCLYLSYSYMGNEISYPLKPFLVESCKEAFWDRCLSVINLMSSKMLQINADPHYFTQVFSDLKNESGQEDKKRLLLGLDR

By inhibition is commonly meant the change of the read-out against control, counted positive when it falls. Turning to `Cc1cc(C)c2[nH]c(=O)c(-c3[nH]cnc3-c3ccccc3)cc2c1` [DIPQUO], the inhibition at 10 µM was above 70% in test [1]; above 70% in test [2]; above 70% in test [3]; 100% in test [4]; above 70% in test [5]; above 70% in test [6]. For the same compound, the inhibition at 10 µM in test [7], in test [8], in test [9] and in test [10] was above 70% in each case.
